Results published in patent publication US4638047A, “Enzyme inhibition” (priority 1983, dated 1987).
Read-outs that look alike come from different tables or passages of the source. Residues, ends and D or L forms follow the SMILES beside them.

Key:
[1] = In vivo half life in plasma
Procedure: These tests were carried out in rabbits, using between 0.1-4 mg/Kg of the inhibitor and comparing the KCCT or the thrombin clotting time in blood samples taken before and at various time intervals after the administration of inhibitors.

[2] = target: T1, human thrombin (Homo sapiens, UniProt P00734); assay: Inhibition of human thrombin hydrolysing the chromogenic substrate S-2238 (Ki by Dixon plot); assay type: biochemical
T1 construct: forms a lipoprotein complex with prothrombin (factor II) and cleaves it to form thrombin (factor IIa) itself
Procedure: (a) Inhibition of human thrombin hydrolysing the chromogenic substrate S-2238 (for details of the method, see M. F. Scully and V. V. Kakkar, Clin. Chim. Acta 1977.79.595). Series of measurements were carried out using a number of different inhibitor concentrations and at least two different substrate concentrations. The inhibitory constant Ki was determined graphically, using a Dixon plot (M. Dixon, Biochem. J. 1953.55.170)

[3] = rabbit

Molecule	in vivo half life in plasma [1] [min]	Ki [2] [µM]	in vivo half life in plasma [3] [min]
heparin	15		
CCNC(=O)[C@@H](NC(=O)[C@H](CCCNC(=N)N)NC(=O)[C@@H]1CCCN1C(=O)CCC(=O)[C@H](CCCNC(=N)N)NC(=O)[C@@H]1CCCN1C(=O)[C@H](N)Cc1ccccc1)C(C)C [Example H-200] (HELM PEPTIDE1{[dF].P.[N=C(N)NCCC[C@H](N[*:1])C(=O)CCC(=O)[*:2]].P.R.V.[CCN[*:1]]}$$$$V2.0)		3	
CCNC(=O)[C@@H]1CCCN1C(=O)CCC(=O)[C@H](CCCNC(=N)N)NC(=O)[C@@H]1CCCN1C(=O)[C@H](N)Cc1ccccc1 [Example H-179]		6	18
CC(C)(C)OC(=O)N[C@H](Cc1ccccc1)C(=O)N1CCC[C@H]1C(=O)N[C@@H](CCCNC(=N)N)CNCC(=O)N1CCC[C@H]1C(=O)O [Example H-172]		112	
CCNC(=O)[C@@H]1CCCN1C(=O)CCC(=O)[C@@H](CCCNC(=N)N)NC(=O)[C@@H]1CCCN1C(=O)[C@@H](Cc1ccccc1)NC(=O)OC(C)(C)C [Example H-170]		68	
